Values joined by “and” are separate entries in the source; they are usually repeats but may differ in a detail not shown here. Identical values can stand only once. “Also recorded” adds a separate entry of the source.
Assays:
Aedes albopictus = assay: One-minute biting counts on treated forearm (Example 7); assay type: in vivo
Procedure: This experiment was performed to evaluate the comparative repellency of 5% and 20% 2-undecanone in ethanol, 20% 2-tridecanone in isopropanol and Off!™ 14.25% DEET Insect Repellent aerosol against Aedes albopictus (Asian tiger mosquitoes) and Culex quinquefasciatus (southern house mosquitoes).
Three to four-day-old laboratory-reared female Ae. albopictus and Cx. quinquefasciatus were transferred by aspiration into eight cages measuring 10 inches high×10 inches wide×13 inches deep at a targeted stocking rate of 100 and 200, respectively. Four cages contained Ae. albopictus and four contained Cx. quinquefasciatus. A greater number of Cx. quinquefasciatus was used to compensate for lower biting activity anticipated for this species. The actual number of females per cage was lower than the target-stocking rate because of the high number of males that were inadvertently introduced into the cages. Each cage contained a screened back wall, clear Plexiglas top, stockinette entry sleeve and solid aluminum floor and sidewalls. The mosquitoes were fed water and sugar water prior to and between tests. The tests were conducted over four days, Aug. 7-10, 2001, with four men participating as testers. All testers washed both arms with a non-fragrance soap, rinsed and swabbed with 25% ethanol prior to applying treatments. Treatments were applied to the forearm in a region extending from the wrist to a point measured at 12″ back from the tip of the index finger on both arms. The 20% 2-tridecanone was not applied as uniformly as the other repellents because an insufficient quantity was available. Latex gloves were worn over the hands and replaced before each biting count. The control consisted of a soap wash, rinse and 25% ethanol swab and was conducted by the same person throughout the study. One-minute biting counts were recorded at 0, 1, 2, 4 & 6 hours post-treatment time intervals. All treatments were randomly assigned to each tester, two treatments per tester. Cage placement was also randomized at the beginning of each day of testing. Testers were rotated each day so that by the end of the study they had occupied each cage location. Each repellent was tested two times by three testers so that mean biting counts were based on six observations. A Hobo datalogger was used to monitor temperature and humidity throughout the study.
A balanced incomplete block design following American Society for Testing and Materials standards E 939-94 was employed. Data were normalized by square root transformation and submitted to analysis of variance and mean separation procedures via SS PC. Microsoft Excel 2000 pivot tables and charting functions were used to plot mean biting counts and standard errors by species and time interval for each treatment and control. Mean biting counts were transformed to percent protection or repellency by the following formula: Control−Treatment/Control×100.

Culex spp. = assay: Mosquito repellency of 2-undecanone and 2-tridecanone, treated arm in cage (Example 6); assay type: in vivo; conditions: for No. landings: single replicates; for observed repellent / residual activity (words): observed up to 24 hours post-treatment
Description: Cages. The same two mosquitoes cages described in Example 5 were used for this example. The cages were constructed using wood framing and fine mesh wire screen. The dimensions of each cage were 59 cm high×55 cm wide by 59 cm deep. A hinged access door was installed at the front of each chamber for insertion of the water-filled containers filled with mosquito pupae. Also present at the front of each chamber was a 9 cm diameter plastic tube (i.d.) for insertion of the arm of the investigator. The arm insertion tube was sealed with a rubber stopper when not in use.
Mosquitoes and Mosquito Rearing. Mosquitoes (Culex spp.) were obtained (as pupae and larvae) from Carolina Biological Supply Co., Burlington, N.C., USA in two successive shipments, so as to provide a continuing long term supply of fresh insects. Following their arrival, the mosquitoes were divided into approximately equal numbers in multiple water-filled containers and placed in the two cages described above. The larval and pupal cultures were fed with insect rearing compound. In addition, the water was changed regularly by filtration to minimize contamination and prevent overcrowding. Continuous culturing made it possible to increase the mosquito numbers to more than 100 insects per cage.
Test Compounds and Testing Schedule. Testing was done with two compounds, 2-undecanone, and 2-tridecanone, for repellent activity by treating one arm of the investigator with approximately 1 ml of the test solution. Following several minutes for solvent evaporation, the treated arm was inserted through the insertion tube for 5 minutes. The other arm was treated with isoprbpanol (control) or a different concentration of the compound, and inserted into the insertion tube of the adjacent chamber. Next, the behavior of the mosquitoes in response to the presence of the investigator's arms was noted. Mosquito behavior was recorded as 1) landing or attempting to land on the investigator's arm, or coming to rest on the wire screen immediately adjacent to the investigator's arm or hand, versus 2) dispersal away from the treated arm towards the opposite ends of the cage. The approximate number of mosquitoes present at the beginning of the observations was noted. For treatments with 2-undecanone, observations were made initially to confirm 100% repellent activity of the compound immediately after treatment but observations were not recorded. Recording of efficacy was delayed until 6 hours after treatment, and then repeated at 12 and 24 hours post-treatment. For treatment with 2-tridecanone, the observations commenced immediately after solvent drying; then, the observations were repeated (without re-treatment of the investigator's hand and arm) after 6 hours, 12 hours and 24 hours. Treatments were alternated between the different cages. […]
2-tridecanone was obtained as a solid. To prepare this compound for testing, it was subjected to gentle heating in a 37° C. water bath to liquefy it, and aliquots of the stock were diluted volume: volume with isopropanol to 50% concentration and 20% concentration. Sufficient pure compound was retained for direct application (undiluted).
Tests were done at concentrations of 100%, 50%, and 20% for each of the two compounds, as well as 20% DEET, and the isopropanol control.
Table 3 presents the efficacy found at the different time intervals for each of the compounds at the three different concentrations and for DEET. Efficacy was calculated according to the formula: [(no. landings/no. present in control)−(no. landings/no. present in experinental) divided by (no. landings/no. present in control)]×100.

[1] = 20% concentration, 6 hours after treatment
[2] = 20% concentration, 12 hours after treatment
[3] = 20% concentration, 24 hours after treatment
[4] = 50% concentration, 6 hours after treatment
[5] = 50% concentration, 6 hours after treatment, listed as IBI-246
[6] = 50% concentration, 12 hours after treatment
[7] = 50% concentration, 12 hours after treatment, listed as IBI-246
[8] = 50% concentration, 24 hours after treatment
[9] = 50% concentration, 24 hours after treatment, listed as IBI-246
[10] = 100% concentration, 6 hours after treatment
[11] = 100% concentration, 12 hours after treatment
[12] = 100% concentration, 24 hours after treatment
[13] = 20% concentration, 0 hours after treatment

CCCCCCCCCC(C)=O [2-undecanone]
mean biting count, mean separation test versus the 20% formulations (Aedes albopictus; 5% formulation): significantly (p=0.05) lower mean biting count than the other two formulations | repellency (Aedes albopictus; 5% formulation, initial value): 100% | repellency (Aedes albopictus; 5% formulation, value to which repellency diminished): upper 60 percentile | repellency (Aedes albopictus; 20% formulations, post-treatment time intervals): low repellency | performance during the first biting count (Aedes albopictus; Off! 14.25% DEET, 5% 2-undecanone): worked well | Percent Efficacy Post-Treatment (Culex spp.; 20% concentration, 0 hours): 100% | Percent Efficacy Post-Treatment (Culex spp.; 20% concentration, 6 hours): 46.6% | No. landings, Mean (Culex spp.; [1]): 0.7 | Percent = [(No. landings/No. present)] × 100 (Culex spp.; [1]): 2.5% | Percent = [(No. landings/No. present)] × 100 (Culex spp.; 20% concentration, 6 hours after treatment, listed as 2-Undecanone): 7.1% | No. landings (Culex spp.; [1]): 0 (2×) and 2 | Percent Efficacy Post-Treatment (Culex spp.; 20% concentration, 12 hours): 0% | No. landings, Mean (Culex spp.; [2]): 5.0 | Percent = [(No. landings/No. present)] × 100 (Culex spp.; [2]): 17.1% | Percent = [(No. landings/No. present)] × 100 (Culex spp.; 20% concentration, 12 hours after treatment, listed as 2-Undecanone): 17.1% | No. landings (Culex spp.; [2]): 5 and 6 and 4 | Percent Efficacy Post-Treatment (Culex spp.; 20% concentration, 24 hours): 0% | No. landings, Mean (Culex spp.; [3]): 4.0 | Percent = [(No. landings/No. present)] × 100 (Culex spp.; [3]): 13.4% | Percent = [(No. landings/No. present)] × 100 (Culex spp.; 20% concentration, 24 hours after treatment, listed as 2-Undecanone): 13.8% | No. landings (Culex spp.; [3]): 4 | Percent Efficacy Post-Treatment (Culex spp.; 50% concentration, 0 hours): 100% | Percent Efficacy Post-Treatment (Culex spp.; 50% concentration, 6 hours): 83.5% | No. landings, Mean (Culex spp.; [4]): 1.3 | Percent = [(No. landings/No. present)] × 100 (Culex spp.; [4]): 1.1% | Percent = [(No. landings/No. present)] × 100 (Culex spp.; [5]): 2.2% | No. landings (Culex spp.; [5]): 0 (3×) and 1 and 3 and 4 | Percent Efficacy Post-Treatment (Culex spp.; 50% concentration, 12 hours): 65.3% | No. landings, Mean (Culex spp.; [6]): 7.2 | Percent = [(No. landings/No. present)] × 100 (Culex spp.; [6]): 5.8% | Percent = [(No. landings/No. present)] × 100 (Culex spp.; [7]): 5.8% | No. landings (Culex spp.; [7]): 1 and 2 (2×) and 13 (2×) and 12 | Percent Efficacy Post-Treatment (Culex spp.; 50% concentration, 24 hours): 56.5% | No. landings, Mean (Culex spp.; [8]): 7.5 | Percent = [(No. landings/No. present)] × 100 (Culex spp.; [8]): 5.7% | Percent = [(No. landings/No. present)] × 100 (Culex spp.; [9]): 5.7% | No. landings (Culex spp.; [9]): 3 and 2 (2×) and 11 (2×) and 16 | Percent Efficacy Post-Treatment (Culex spp.; 100% concentration, 0 hours): 100% | Percent Efficacy Post-Treatment (Culex spp.; 100% concentration, 6 hours): 100% | No. landings, Mean (Culex spp.; [10]): 0 | Percent = [(No. landings/No. present)] × 100 (Culex spp.; [10]): 0% | No. landings (Culex spp.; [10]): 0 | Percent Efficacy Post-Treatment (Culex spp.; 100% concentration, 12 hours): 48.5% | No. landings, Mean (Culex spp.; [11]): 1.7 | Percent = [(No. landings/No. present)] × 100 (Culex spp.; [11]): 8.6% | Percent = [(No. landings/No. present)] × 100 (Culex spp.; 100% concentration, 12 hours after treatment, listed as 2-Undecanone): 8.6% | No. landings (Culex spp.; [11]): 3 and 1 (2×) | Percent Efficacy Post-Treatment (Culex spp.; 100% concentration, 24 hours): 0% | No. landings, Mean (Culex spp.; [12]): 3.0 | Percent = [(No. landings/No. present)] × 100 (Culex spp.; [12]): 19.1% | No. landings (Culex spp.; [12]): 3 | observed repellent / residual activity (words) (Culex spp.; 100% concentration): absent after 24 hours post-treatment | observed repellent / residual activity (words) (Culex spp.; 100% concentration, listed as 2-Undecanone): Comments: Strong avoidance response was still evident at 6 hours. Avoidance was much; also recorded: weaker after 12 hours and no obvious avoidance, no dispersal away from the treated | overall repellent activity, comparison of the two compounds (Culex spp.; 100%, 50% and 20% concentrations, 0 to 24 hours): greatest activity overall

CCN(CC)C(=O)c1cccc(C)c1 [DEET, N,N-diethyl-meta-toluamide, reference compound]
Percent Efficacy Post-Treatment (Culex spp.; 20% concentration, 0 hours): 91.1% | No. landings, Mean (Culex spp.; [13]): 1.3 | Percent = [(No. landings/No. present)] × 100 (Culex spp.; [13]): 1.3% | No. landings (Culex spp.; [13]): 2 (2×) and 0 | Percent Efficacy Post-Treatment (Culex spp.; 20% concentration, 6 hours): 63.9% | No. landings, Mean (Culex spp.; [1]): 5.7 | Percent = [(No. landings/No. present)] × 100 (Culex spp.; [1]): 4.8% | No. landings (Culex spp.; [1]): 10 and 4 and 3 | Percent Efficacy Post-Treatment (Culex spp.; 20% concentration, 12 hours): 31.7% | No. landings, Mean (Culex spp.; [2]): 15.0 | Percent = [(No. landings/No. present)] × 100 (Culex spp.; [2]): 11.4% | No. landings (Culex spp.; [2]): 12 and 15 and 18 | Percent Efficacy Post-Treatment (Culex spp.; 20% concentration, 24 hours): 16.8% | No. landings, Mean (Culex spp.; [3]): 13.0 | Percent = [(No. landings/No. present)] × 100 (Culex spp.; [3]): 10.9% | No. landings (Culex spp.; [3]): 14 (2×) and 11 | observed repellent / residual activity (words) (Culex spp.; 20% concentration): strong immediate and residual activity for up to 6 hours, weak activity at 12 hours and none thereafter; also recorded: treatment, but no residual activity was observed at 12 or 24 hours post-treatment
